As usually defined, the GI50 is the concentration giving 50% growth inhibition.

These results are taken from ChEMBL document CHEMBL1201862, “PubChem BioAssay data set” (2004).

Among the test systems are 786-0; A498; ACHN; EKVX; HOP-62; K562; M14; MDA-N; MOLT-4; NCI-H226; NCI-H522; RXF 393; SF-268; SK-MEL-5; SK-OV-3; SN12C; SNB-75; SR; SW-620.
Holding throughout (assay): DTP human tumour cell line panel, 48 h

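Five concentrations, 48 hours, 96-well plates. The concentration for 50% growth inhibition is given as GI50.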 Active and inactive are the calls of the source. Cut-off read from the data, not from the text of the source: active = GI50 up to about 1.1 µM and inactive = higher.

As for `Nc1nc(OCC2CCCCC2)c2nc[nH]c2n1`, the GI50 in the assay with 786-0 is 17 µM (inactive); in the assay on A498 it was 13.7 µM (inactive); with ACHN it was 1.3 µM (inactive); with EKVX, 19.4 µM (inactive); in the assay on HOP-62 it was 13.4 µM (inactive); in the assay with K562 it was 29.1 µM (inactive). Moreover, the GI50 with M14 was 8.73 µM (inactive); with MDA-N, 13.1 µM (inactive); in the assay on MOLT-4 it was 8.47 µM (inactive); in the assay on NCI-H226, 9.59 µM (inactive); with NCI-H522, 9.1 µM (inactive); with RXF 393, 9.51 µM (inactive). The GI50 was 11.2 µM (inactive) in the assay on SF-268; 15.2 µM (inactive) in the assay with SK-MEL-5; 14.9 µM (inactive) in the assay with SK-OV-3; 10.2 µM (inactive) in the assay on SN12C; 16.1 µM (inactive) in the assay with SNB-75; 6.85 µM (inactive) with SR. Further, the GI50 in the assay with SW-620 was 23.3 µM (inactive).

For the compound `C=C1C(=O)O[C@@H]2C[C@@]3(C)CCCC(=C)[C@@H]3C[C@H]12.C=C1C(=O)O[C@@H]2C[C@@]3(C)CCC[C@H](C)C3=C[C@H]12`, the GI50 in the assay on 786-0 is 1.43 µM (inactive); in the assay with A498, 1.71 µM (inactive); in the assay on ACHN it was 2.55 µM (inactive); in the assay on EKVX, 4.78 µM (inactive); with HOP-62, 2.3 µM (inactive); in the assay with K562, 2.04 µM (inactive). Also, the GI50 with M14 was 1.42 µM (inactive); in the assay on MDA-N, 2.04 µM (inactive); with MOLT-4, 1.34 µM (inactive); in the assay with NCI-H226, 5.3 µM (inactive); in the assay on NCI-H522 it was 1.38 µM (inactive); in the assay with RXF 393, 1.56 µM (inactive). For the same compound, the GI50 in the assay with SF-268 was 2.55 µM (inactive); in the assay with SK-MEL-5, 1.6 µM (inactive); with SK-OV-3 it was 9.79 µM (inactive); in the assay on SN12C, 1.69 µM (inactive); in the assay with SNB-75, 1.91 µM (inactive); in the assay on SR, 0.494 µM (active). Moreover, the GI50 with SW-620 was 1.64 µM (inactive).

On to `O=C1CC(=O)NC(NN2C(=O)/C(=C/c3ccccc3)N=C2c2ccccc2)=N1`, for which the GI50 in the assay with 786-0, with A498, in the assay with ACHN, in the assay on HOP-62, with K562 and with M14 was > 100 µM (inactive) in each case. Besides, the GI50 in the assay on MDA-N, in the assay with MOLT-4, with NCI-H226, in the assay with NCI-H522, with RXF 393 and in the assay on SF-268 was > 100 µM (inactive) each time. Moreover, the GI50 in the assay with SK-MEL-5, in the assay with SK-OV-3, in the assay on SN12C, in the assay on SNB-75, with SR and in the assay with SW-620 was > 100 µM (inactive) each time.

As for `O=[N+]([O-])c1ccccc1OCCOc1ccccc1[N+](=O)[O-]`, the GI50 with 786-0, in the assay with A498, in the assay with ACHN, in the assay with EKVX, in the assay with HOP-62 and in the assay on K562 was > 100 µM (inactive) each time. Besides, the GI50 in the assay with M14, with MDA-N, with MOLT-4, in the assay with NCI-H226, in the assay with NCI-H522 and in the assay on RXF 393 was > 100 µM (inactive) in each case. Also, the GI50 with SF-268, in the assay with SK-MEL-5, with SK-OV-3, in the assay on SN12C, in the assay with SNB-75 and in the assay with SR was > 100 µM (inactive) in each case. Also, the GI50 in the assay on SW-620 is > 100 µM (inactive).

As to `O=C(O)C1=C/C(=C(/c2ccccc2)c2cc(C(=O)O)c(O)c3ccccc23)c2ccccc2C1=O`, the GI50 in the assay on 786-0, in the assay on A498, in the assay with ACHN, with EKVX, with HOP-62 and in the assay on K562 was > 100 µM (inactive) throughout. For the same compound, the GI50 in the assay with M14, in the assay on MDA-N, in the assay with MOLT-4, with NCI-H226, in the assay with NCI-H522 and with RXF 393 was > 100 µM (inactive) each time. The GI50 in the assay on SF-268, in the assay with SK-MEL-5, in the assay with SK-OV-3, with SN12C, in the assay on SNB-75 and with SR was > 100 µM (inactive) each time. Moreover, the GI50 with SW-620 was > 100 µM (inactive).

As to `O=[N+]([O-])c1cc2ccc(N(CCO)CCO)nc2nc1N(CCO)CCO`, the GI50 in the assay on 786-0, with A498, with ACHN, in the assay with EKVX, in the assay on HOP-62 and with K562 was > 100 µM (inactive) each time. The GI50 in the assay on M14, in the assay on MDA-N, with MOLT-4, with NCI-H226, in the assay on NCI-H522 and with RXF 393 was > 100 µM (inactive) throughout. The GI50 in the assay with SF-268 is > 100 µM (inactive); in the assay with SK-MEL-5, > 100 µM (inactive); with SK-OV-3, > 100 µM (inactive); in the assay with SN12C, > 100 µM (inactive); with SNB-75, > 100 µM (inactive); with SR, 46.2 µM (inactive). Besides, the GI50 with SW-620 was > 100 µM (inactive).

Take `CCCCOP(=O)(OCCCC)/C(C#N)=C/c1ccc(C)o1`: the GI50 in the assay on 786-0 was 37.1 µM (inactive); with A498, 56 µM (inactive); with ACHN, 42.2 µM (inactive); in the assay on EKVX it was 40.6 µM (inactive); in the assay on HOP-62 it was > 100 µM (inactive); with K562 it was 31.2 µM (inactive). In addition, the GI50 is 28.2 µM (inactive) in the assay on M14; 36.9 µM (inactive) with MDA-N; 63.4 µM (inactive) with MOLT-4; 28 µM (inactive) in the assay with NCI-H226; 58.9 µM (inactive) in the assay with NCI-H522; 26.7 µM (inactive) in the assay on RXF 393. Further, the GI50 in the assay with SF-268 was 63.4 µM (inactive); in the assay on SK-MEL-5 it was 33.7 µM (inactive); in the assay on SK-OV-3, 81.5 µM (inactive); in the assay on SN12C, 56.1 µM (inactive); in the assay with SNB-75 it was 35.3 µM (inactive); with SR, 51.6 µM (inactive). Moreover, the GI50 in the assay with SW-620 was 95.9 µM (inactive).

As to `COC(=O)C1=C(C)NC(CF)=C(C(=O)OC)C1c1cccc2c(=O)c3ccccc3oc12` (stereo unspecified), the GI50 is 7.38 µM (inactive) in the assay with 786-0; 5.53 µM (inactive) with A498; 15.1 µM (inactive) with ACHN; 19.1 µM (inactive) with EKVX; 11.7 µM (inactive) with HOP-62; 4.06 µM (inactive) in the assay with K562. Moreover, the GI50 is 1.92 µM (inactive) with MDA-N; 5.89 µM (inactive) with MOLT-4; > 100 µM (inactive) with NCI-H226; 6.31 µM (inactive) in the assay on NCI-H522; 11.7 µM (inactive) in the assay on RXF 393; 18.3 µM (inactive) in the assay with SF-268. Also, the GI50 in the assay with SK-MEL-5 is 5.06 µM (inactive); in the assay on SK-OV-3, 26.5 µM (inactive); in the assay with SN12C, 4.63 µM (inactive); with SNB-75, 8.41 µM (inactive); in the assay with SR, 9.4 µM (inactive); in the assay on SW-620, 1.73 µM (inactive).

In the case of `O=C(C(=O)n1ccc2ccccc21)n1ccc2ccccc21`, the GI50 is 91.6 µM (inactive) in the assay on 786-0; > 100 µM (inactive) in the assay on A498; > 100 µM (inactive) in the assay with ACHN; > 100 µM (inactive) in the assay on EKVX; 99.3 µM (inactive) in the assay on HOP-62; 71.4 µM (inactive) in the assay on K562. Besides, the GI50 with MDA-N is > 100 µM (inactive); with MOLT-4, > 100 µM (inactive); with NCI-H226, > 100 µM (inactive); in the assay with NCI-H522, 49.2 µM (inactive); with RXF 393, 88.7 µM (inactive); in the assay with SF-268 it was 84.7 µM (inactive). Further, the GI50 is > 100 µM (inactive) with SK-MEL-5; 48.3 µM (inactive) in the assay with SK-OV-3; > 100 µM (inactive) in the assay with SN12C; 10.7 µM (inactive) with SNB-75; 40.1 µM (inactive) with SR; > 100 µM (inactive) in the assay with SW-620.

Consider `O=C1/C(=C/c2ccc(Cl)cc2)N=C(c2ccccc2)N1c1nc2ccccc2s1`, for which the GI50 was > 100 µM (inactive) in the assay with 786-0; 30.5 µM (inactive) with A498; 62.5 µM (inactive) with ACHN; > 100 µM (inactive) in the assay on EKVX; > 100 µM (inactive) in the assay on HOP-62; 26.4 µM (inactive) in the assay on K562. Further, the GI50 in the assay with M14 is 69.8 µM (inactive); with MDA-N, 39 µM (inactive); in the assay on MOLT-4 it was 0.548 µM (active); with NCI-H226, 49.7 µM (inactive); in the assay on NCI-H522 it was 24.4 µM (inactive); with RXF 393 it was > 100 µM (inactive). The GI50 is 38.4 µM (inactive) in the assay on SF-268; 31.6 µM (inactive) in the assay on SK-MEL-5; > 100 µM (inactive) with SK-OV-3; 77.3 µM (inactive) in the assay on SNB-75; 0.0537 µM (active) in the assay on SR; 64 µM (inactive) in the assay with SW-620.
